Assay results reported in ChEMBL document CHEMBL4330134, “Design, synthesis, and bioevaluation of a novel class of (E)-4-oxo-crotonamide derivatives as potent antituberculosis agents” (Bioorg Med Chem Lett, 2019).
Values after ≈ are worked out from the molar mass of the structure shown.

Test system: Mycobacterium tuberculosis
Experiment: Antimycobacterial activity against Mycobacterium tuberculosis H37Rv ATCC 27294 after 4 days by microplate Alamar blue assay
Assay type: functional
Conditions: H37Rv ATCC 27294, 96 h

SMILES | MIC
CCN(C)C(=O)/C=C/C(=O)c1cccc(OC)c1 | 1.88 mg/L (≈ 7.6 µM)
COc1ccc(C(=O)/C=C/C(=O)OC(C)C)cc1OC | 1.94 mg/L (≈ 6.97 µM)
CN(C)C(=O)/C=C/C(=O)c1cccc(Br)c1 | 0.96 mg/L (≈ 3.4 µM)
CCCN(CCC)C(=O)/C=C/C(=O)c1ccccc1F | 0.94 mg/L (≈ 3.39 µM)
CCN(C)C(=O)/C=C/C(=O)c1ccc(Cl)c(Cl)c1 | 0.24 mg/L (≈ 0.839 µM)
CC(C)(C)OC(=O)NCCOC(=O)/C=C/C(=O)c1ccc([N+](=O)[O-])cc1 | > 4 mg/L
COC(=O)/C=C/C(=O)c1ccccc1 | 0.86 mg/L (≈ 4.52 µM)
COC(=O)/C=C/C(=O)c1ccc(Br)cc1 | 0.49 mg/L (≈ 1.82 µM)
CN(C)C(=O)/C=C/C(=O)c1cccc(F)c1 | 1.84 mg/L (≈ 8.32 µM)
CC(=O)/C=C/C(=O)O | > 4 mg/L
COC(=O)/C=C/C(=O)c1ccc([N+](=O)[O-])cc1 | 0.54 mg/L (≈ 2.3 µM)
CCOC(=O)/C=C/C(=O)c1ccc(OCc2ccccc2)cc1 | 0.96 mg/L (≈ 3.09 µM)
CCCN(CCC)C(=O)/C=C/C(=O)c1ccc2c(c1)OCO2 | > 2 mg/L
Cc1ccc(C(=O)/C=C/C(=O)O)cc1 | > 4 mg/L
COC(=O)/C=C/C(=O)c1cccc2ccccc12 | 0.45 mg/L (≈ 1.87 µM)
CCN(C)C(=O)/C=C/C(=O)c1cccc(Br)c1 | 1.52 mg/L (≈ 5.13 µM)
CCCN(CCC)C(=O)/C=C/C(=O)c1cccc(Cl)c1 | 1.91 mg/L (≈ 6.5 µM)
CN(C)C(=O)/C=C/C(=O)c1ccc(Cl)c(Cl)c1 | 0.84 mg/L (≈ 3.09 µM)
CCN(C)C(=O)/C=C/C(=O)c1ccccc1F | 0.24 mg/L (≈ 1.02 µM)
O=C(O)/C=C/C(=O)c1ccc([N+](=O)[O-])cc1 | > 4 mg/L
COC(=O)/C=C/C(=O)c1cccc(OC)c1 | 0.39 mg/L (≈ 1.77 µM)
CC(C)OC(=O)/C=C/C(=O)c1ccc(OCc2ccccc2)cc1 | 1.14 mg/L (≈ 3.51 µM)
CCCN(CCC)C(=O)/C=C/C(=O)c1ccc(-c2ccccc2)cc1 | 1.4 mg/L (≈ 4.17 µM)
CC(C)OC(=O)/C=C/C(=O)C1CCCCC1 | > 4 mg/L
COc1ccc(C(=O)/C=C/C(=O)N(C)C)cc1 | 0.38 mg/L (≈ 1.63 µM)

SMILES | MIC
CCCN(CCC)C(=O)/C=C/C(=O)c1ccc(OC)cc1 | 1.89 mg/L (≈ 6.53 µM)
CN(C)C(=O)/C=C/C(=O)c1ccc(Cl)cc1 | 0.38 mg/L (≈ 1.6 µM)
COC(=O)/C=C/C(=O)c1cc(OC)ccc1OC | 0.88 mg/L (≈ 3.52 µM)
CCOC(=O)/C=C/C(=O)c1ccco1 | 1.09 mg/L (≈ 5.61 µM)
CC(C)OC(=O)/C=C/C(=O)c1ccc(-c2ccccc2)cc1 | 0.24 mg/L (≈ 0.815 µM)
CCOc1ccc(C(=O)/C=C/C(=O)OC(C)C)cc1 | 0.47 mg/L (≈ 1.79 µM)
COC(=O)/C=C/C(=O)c1ccc2c(c1)CCO2 | 0.84 mg/L (≈ 3.62 µM)
CCCN(CCC)C(=O)/C=C/C(=O)c1ccc(Cl)cc1 | 1.67 mg/L (≈ 5.68 µM)
O=C(O)/C=C/C(=O)c1ccccc1 | > 4 mg/L
COc1cccc(C(=O)/C=C/C(=O)N(C)C)c1 | 1.62 mg/L (≈ 6.94 µM)
CN(C)C(=O)/C=C/C(=O)c1ccccc1[N+](=O)[O-] | 1.51 mg/L (≈ 6.08 µM)
CC(C)OC(=O)/C=C/C(=O)c1ccc([N+](=O)[O-])cc1 | 0.5 mg/L (≈ 1.9 µM)
COc1ccc(C(=O)/C=C/C(=O)OC(C)C)cc1 | 1.64 mg/L (≈ 6.61 µM)
CCOC(=O)/C=C/C(=O)c1ccc([N+](=O)[O-])cc1 | 0.48 mg/L (≈ 1.93 µM)
CC(C)OC(=O)/C=C/C(=O)c1ccc(Cl)cc1Cl | 1.01 mg/L (≈ 3.52 µM)
CCCN(CCC)C(=O)/C=C/C(=O)c1cccc(Br)c1 | > 2 mg/L
CN(C)C(=O)/C=C/C(=O)c1ccccc1Cl | 0.84 mg/L (≈ 3.53 µM)
COc1cccc(C(=O)/C=C/C(=O)OC(C)C)c1 | 0.92 mg/L (≈ 3.71 µM)
CC(C)(C)OC(=O)NCCOC(=O)/C=C/C(=O)c1ccc(Oc2ccccc2)cc1 | > 4 mg/L
NNC(=O)c1ccncc1 [ISONIAZID] | 0.025 mg/L (≈ 0.182 µM)
CCOC(=O)/C=C/C(=O)c1ccc2c(c1)CCO2 | 0.94 mg/L (≈ 3.82 µM)
CCN(C)C(=O)/C=C/C(=O)c1cccc([N+](=O)[O-])c1 | > 2 mg/L
CCCN(CCC)C(=O)/C=C/C(=O)c1ccc(Cl)c(Cl)c1 | 0.88 mg/L (≈ 2.68 µM)
CCN(C)C(=O)/C=C/C(=O)c1ccc([N+](=O)[O-])cc1 | 1.7 mg/L (≈ 6.48 µM)
O=C(O)/C=C/C(=O)c1cccc2ccccc12 | > 4 mg/L

SMILES | MIC
COc1ccccc1C(=O)/C=C/C(=O)OC(C)C | 1.91 mg/L (≈ 7.69 µM)
CC(=O)/C=C/C(=O)OCCNC(=O)OC(C)(C)C | > 4 mg/L
CC(C)OC(=O)/C=C/C(=O)c1ccc(Oc2ccccc2)cc1 | 1.69 mg/L (≈ 5.45 µM)
CC(C)OC(=O)/C=C/C(=O)c1ccco1 | 0.65 mg/L (≈ 3.12 µM)
CC(C)(C)OC(=O)NCCOC(=O)/C=C/C(=O)c1ccco1 | > 4 mg/L
CCOC(=O)/C=C/C(=O)c1ccc(C)cc1 | > 4 mg/L
CC(=O)/C=C/C(=O)OC(C)C | 2.5 mg/L (≈ 16 µM)
CN(C)C(=O)/C=C/C(=O)c1ccc(Cl)cc1Cl | 0.41 mg/L (≈ 1.51 µM)
CC(C)(C)OC(=O)NCCOC(=O)/C=C/C(=O)c1ccc2c(c1)OCO2 | > 4 mg/L
O=C(O)/C=C/C(=O)c1ccc(Br)cc1 | > 4 mg/L
COc1cccc(C(=O)/C=C/C(=O)O)c1 | > 4 mg/L
CCN(C)C(=O)/C=C/C(=O)c1ccc(-c2ccccc2)cc1 | 0.49 mg/L (≈ 1.67 µM)
CCCN(CCC)C(=O)/C=C/C(=O)c1cccc(F)c1 | 0.96 mg/L (≈ 3.46 µM)
CC(C)OC(=O)/C=C/C(=O)C1CC1 | 0.68 mg/L (≈ 3.73 µM)
CN(C)C(=O)/C=C/C(=O)c1cccc(C(F)(F)F)c1 | 1.95 mg/L (≈ 7.19 µM)
CCOC(=O)/C=C/C(=O)c1ccccc1 | 0.82 mg/L (≈ 4.02 µM)
CCCN(CCC)C(=O)/C=C/C(=O)c1cccc(OC)c1 | > 2 mg/L
O=C(O)/C=C/C(=O)C1CCCCC1 | > 4 mg/L
CCOC(=O)/C=C/C(=O)C1CC1 | > 4 mg/L
O=C(O)/C=C/C(=O)c1ccc(Cl)cc1Cl | > 4 mg/L
CCOC(=O)/C=C/C(=O)c1ccc(-c2ccccc2)cc1 | 0.23 mg/L (≈ 0.82 µM)
CCOC(=O)/C=C/C(=O)c1ccc(Oc2ccccc2)cc1 | 1.52 mg/L (≈ 5.13 µM)
CCOC(=O)/C=C/C(=O)c1cccc2ccccc12 | 0.61 mg/L (≈ 2.4 µM)
CCOc1ccc(C(=O)/C=C/C(=O)OC)cc1 | 0.41 mg/L (≈ 1.75 µM)
CCN(C)C(=O)/C=C/C(=O)c1ccc2c(c1)OCO2 | > 2 mg/L

SMILES | MIC
COC(=O)/C=C/C(=O)c1ccc(-c2ccccc2)cc1 | 0.2 mg/L (≈ 0.751 µM)
O=C(O)/C=C/C(=O)c1ccco1 | > 4 mg/L
COC(=O)/C=C/C(=O)c1ccc(OCc2ccccc2)cc1 | 0.67 mg/L (≈ 2.26 µM)
COC(=O)/C=C/C(=O)c1ccco1 | 0.52 mg/L (≈ 2.89 µM)
COC(=O)/C=C/C(=O)c1ccc(Oc2ccccc2)cc1 | 0.87 mg/L (≈ 3.08 µM)
CCOC(=O)/C=C/C(=O)c1cc(OC)ccc1OC | 1.05 mg/L (≈ 3.97 µM)
CCCN(CCC)C(=O)/C=C/C(=O)c1ccccc1[N+](=O)[O-] | 1.24 mg/L (≈ 4.07 µM)
CC(C)(C)OC(=O)NCCOC(=O)/C=C/C(=O)C1CCCCC1 | > 4 mg/L
CC(C)OC(=O)/C=C/C(=O)c1ccccc1 | 0.78 mg/L (≈ 3.57 µM)
CN(C)C(=O)/C=C/C(=O)c1ccccc1F | 0.95 mg/L (≈ 4.29 µM)
COC(=O)/C=C/C(C)=O | 0.86 mg/L (≈ 6.71 µM)
O=C(O)/C=C/C(=O)c1ccc(Oc2ccccc2)cc1 | > 4 mg/L
CCCN(CCC)C(=O)/C=C/C(=O)c1ccc(OCC)cc1 | 1.91 mg/L (≈ 6.3 µM)
CN(C)C(=O)/C=C/C(=O)c1ccc2c(c1)OCO2 | 0.79 mg/L (≈ 3.2 µM)
CC(C)(C)OC(=O)NCCOC(=O)/C=C/C(=O)c1ccccc1 | > 4 mg/L
CC(C)OC(=O)/C=C/C(=O)c1cccc2ccccc12 | 0.69 mg/L (≈ 2.57 µM)
CCOC(=O)/C=C/C(=O)c1ccc2c(c1)OCO2 | 0.49 mg/L (≈ 1.97 µM)
CC(C)(C)OC(=O)NCCOC(=O)/C=C/C(=O)C1CC1 | 1.45 mg/L (≈ 5.12 µM)
CCN(C)C(=O)/C=C/C(=O)c1ccc(OC)cc1 | 0.93 mg/L (≈ 3.76 µM)
COc1ccc(C(=O)/C=C/C(=O)OCCNC(=O)OC(C)(C)C)cc1 | > 4 mg/L
CCCN(CCC)C(=O)/C=C/C(=O)c1ccc(Cl)cc1Cl | > 2 mg/L
CCCN(CCC)C(=O)/C=C/C(=O)c1ccccc1Cl | > 2 mg/L
Cc1ccc(C(=O)/C=C/C(=O)OCCNC(=O)OC(C)(C)C)cc1 | > 4 mg/L
